Values of other authors in patent publication US6790965B1, “Combinatorial dihydrobenzopyran library” (Pharmacopeia Drug Discovery, Inc., priority 1994, dated 2004).

Biological target: bovine carbonic anhydrase (Bos taurus, UniProt P00921)
Conditions: relatively weak inhibitor, displaced by increased dansylamide concentration

Sequence of bovine carbonic anhydrase (P00921 whole entry): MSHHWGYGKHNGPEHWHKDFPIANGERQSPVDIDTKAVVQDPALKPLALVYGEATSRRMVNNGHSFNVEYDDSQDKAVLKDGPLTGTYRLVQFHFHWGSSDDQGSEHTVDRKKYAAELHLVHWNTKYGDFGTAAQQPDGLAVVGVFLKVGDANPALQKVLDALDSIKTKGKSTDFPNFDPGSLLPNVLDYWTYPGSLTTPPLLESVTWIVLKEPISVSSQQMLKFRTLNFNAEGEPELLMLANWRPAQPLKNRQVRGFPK

Ki: ~75 nM
Compound: NS(=O)(=O)c1cc2c(cc1Cl)N=CNS2(=O)=O [chlorothiazide]
